A short description of this data set: Water absorption (hygroscopicity) of the solid upon storage. Format: physicochemical. As for the experimental part: Tri-μ-oxobis[(1,4,7-trimethyl-1,4,7-triazacyclononane)manganese(IV)]dichloride is prepared analogously to comparative example 1 and isolated in pure form as a red-brown powder. 4.7 g (8 mmol) thereof are dissolved in 50 ml of water and admixed with 3.1 g (16 mmol) of toluene-4-sulfonic acid sodium salt (Merck). After-stirring is carried out for 1 hour at room temperature, followed by evaporation to dryness on a rotary evaporator.
Analogously to comparative example 1, an aqueous solution of 0.2 mol of tri-μ-oxobis[(1,4,7-trimethyl-1,4,7-triazacyclononane)manganese(IV)]dichloride in water is prepared and freed from manganese oxides/hydroxides. The salts contained as a result of the reaction (sodium chloride) remain in the solution. At 25° C., 0.4 mol (77.6 g) of solid toluene-4-sulfonic acid sodium salt (Merck) is added and the mixture is after-stirred for 30 minutes. The clear dark red solution is then evaporated to dryness. Drying in a vacuum drying cabinet gives a crystalline red-violet solid in 92.7% yield, a mixture of tri-μ-oxobis[(1,4,7-trimethyl-1,4,7-triaza-cyclononane)manganese(IV)]dichloride, sodium toluenesulfonate and sodium chloride.
The procedure is in accordance with example 2 but adding sodium cumenesulfonate instead of the sodium toluene-4-sulfonate (equimolar exchange of sodium toluene-4-sulfonate for sodium cumenesulfonate). Evaporation at 50° C. gives a red-brown solid which, after 5 days, absorbs 7.1% by weight of water and in so doing becomes lumpy.
4.4 g (7.5 mmol) of isolated tri-μ-oxobis[(1,4,7-trimethyl-1,4,7-triazacyclo-nonane)manganese(IV)]dichloride according to comparative example 1 are dissolved in 50 ml of water, and 4.3 g (15 mmol) of sodium dodecylsulfate are added. The mixture is after-stirred for 1 hour at room temperature and then evaporated to dryness on a rotary evaporator. This gives 8.7 g of crystalline red solid which, after storage for 5 days at room temperature, absorbs 8.7% by weight of water and in so doing becomes lumpy.

1 compound from patent US20120302490A1, “Bleach Catalyst Compounds, Method For The Production Thereof And Use Thereof” (CLARIANT FINANCE (BVI) LIMITED, priority 2009, published 2012) can be followed below.

Where only a bound is given, the exact number is not on record here.

For the compound `CN1CCN(C)CCN(C)CC1.CN1CCN(C)CCN(C)CC1.[Cl-].[Cl-].[O]1[Mn+]2[O][Mn+]1[O]2` [compound 1, tri-μ-oxobis[(1,4,7-trimethyl-1,4,7-triazacyclononane)-manganese(IV)]dichloride], the “hygroscopicity of isolated powder” value (as isolated, red-brown powder) is “strongly hygroscopic”. Further, the “physical state after storage” value (open dish, room temperature, 24 hours) is reported as “becomes liquid”. Moreover, the “water absorbed upon storage” value (open dish, room temperature, over the course of 24 hours) is reported as over 17 % by weight.
